{"source": "patent US20100068359A1", "about": "“PRESERVATIVE METHOD” (CONOPCO, INC., D/B/A UNILEVER, priority 2008, published 2010)", "key": {"APRY yeast [1]": {"test_system": "APRY yeast", "test": "APRY yeast challenge in YM broth with equal molar salts", "assay_type": "cell-based, Zygosaccharomyces bailii and/or Zygosaccharomyces rouxii", "procedure": "• 1. The growth media of the Bidlas et al. reference was used (YM broth and stock pH (6.0). (Growth media—YMB, Sabourda, PDB • 2. Three salts (NaCl, KCl, NH4Cl) were added in a increasing level. […] The detailed salt amounts are shown in the Table 7 below. • 3. The target pH for all compositions was 5.5. • 4. The effects on APRY Yeast, instead of pathogens as in Bidlas et al. were studied. • 5. Inhibition was measured by CFUs (colony forming units) • 6. Dramatic increases in APRY yeast levels are observed after more than about two days."}, "APRY yeast [2]": {"test_system": "APRY yeast", "test": "Challenge study in full fat mayonnaise model, APRY yeast", "assay_type": "cell-based, Zygosaccharomyces bailii and/or Zygosaccharomyces rouxii", "source_text": "• 1. […] Formula adjustments were made to keep aqueous acetic acid and sugar levels constant, i.e. % active/(% water+% active)×100, i.e., about 1.53% to about 1.54% aqueous acetic acid and about 6.32% to about 6.36% aqueous sugar. • 3. […] Analytical data supported that the per cent replacement targets were met, […] The results of the challenge study over a number of weeks were reported (see Challenge Data in the Tables 3, 4 and 5 below)."}}, "data": [{"smiles": "N.N.O=P(O)(O)O", "note": "[DAP, di-ammonium hydrogen phosphate]", "values": [{"measurement": "APRY yeast level in broth", "setting": "APRY yeast [1]; 0.51 N salt, day 0", "result": "17,600 CFUs"}, {"measurement": "APRY yeast level in broth", "setting": "APRY yeast [1]; 0.51 N salt, day 1", "result": "324,000 CFUs"}, {"measurement": "APRY yeast level in broth", "setting": "APRY yeast [1]; 0.51 N salt, day 1½", "result": "630,000 CFUs"}, {"measurement": "APRY yeast level in broth", "setting": "APRY yeast [1]; 0.51 N salt, day ½", "result": "8,100 CFUs"}, {"measurement": "APRY yeast level in broth", "setting": "APRY yeast [1]; 1.03 N salt, day 0", "result": "21,000 CFUs"}, {"measurement": "APRY yeast level in broth", "setting": "APRY yeast [1]; 1.03 N salt, day 1", "result": "10,200 CFUs"}, {"measurement": "APRY yeast level in broth", "setting": "APRY yeast [1]; 1.03 N salt, day 1½", "result": "24,000 CFUs"}, {"measurement": "APRY yeast level in broth", "setting": "APRY yeast [1]; 1.03 N salt, day 2", "result": "250,000 CFUs"}, {"measurement": "APRY yeast level in broth", "setting": "APRY yeast [1]; 1.03 N salt, day ½", "result": "7,100 CFUs"}, {"measurement": "APRY yeast level in broth", "setting": "APRY yeast [1]; 1.54 N salt, day 0", "result": "6,000 CFUs"}, {"measurement": "APRY yeast level in broth", "setting": "APRY yeast [1]; 1.54 N salt, day 1", "result": "10,300 CFUs"}, {"measurement": "APRY yeast level in broth", "setting": "APRY yeast [1]; 1.54 N salt, day 1½", "result": "2,000 CFUs"}, {"measurement": "APRY yeast level in broth", "setting": "APRY yeast [1]; 1.54 N salt, day 2", "result": "6,700 CFUs"}, {"measurement": "APRY yeast level in broth", "setting": "APRY yeast [1]; 1.54 N salt, day 5", "result": "120,900 CFUs"}, {"measurement": "APRY yeast level in broth", "setting": "APRY yeast [1]; 1.54 N salt, day 6", "result": "117,600 CFUs"}, {"measurement": "APRY yeast level in broth", "setting": "APRY yeast [1]; 1.54 N salt, day 8", "result": "820,000 CFUs"}, {"measurement": "APRY yeast level in broth", "setting": "APRY yeast [1]; 1.54 N salt, day 11", "result": "570,000 CFUs"}, {"measurement": "APRY yeast level in broth", "setting": "APRY yeast [1]; 1.54 N salt, day 13", "result": "141,000 CFUs"}, {"measurement": "APRY yeast level in broth", "setting": "APRY yeast [1]; 1.54 N salt, day 14", "result": "280,000 CFUs"}, {"measurement": "APRY yeast level in broth", "setting": "APRY yeast [1]; 1.54 N salt, day ½", "result": "13,000 CFUs"}, {"measurement": "APRY yeast level in broth", "setting": "APRY yeast [1]; 2.05 N salt, day 0", "result": "10,000 CFUs"}, {"measurement": "APRY yeast level in broth", "setting": "APRY yeast [1]; 2.05 N salt, day 1", "result": "11,500 CFUs"}, {"measurement": "APRY yeast level in broth", "setting": "APRY yeast [1]; 2.05 N salt, day 1½", "result": "6,000 CFUs"}, {"measurement": "APRY yeast level in broth", "setting": "APRY yeast [1]; 2.05 N salt, day 2", "result": "7,100 CFUs"}, {"measurement": "APRY yeast level in broth", "setting": "APRY yeast [1]; 2.05 N salt, day 5", "result": 980, "unit": "CFUs"}, {"measurement": "APRY yeast level in broth", "setting": "APRY yeast [1]; 2.05 N salt, day 6", "result": "5,000 CFUs"}, {"measurement": "APRY yeast level in broth", "setting": "APRY yeast [1]; 2.05 N salt, day 8", "result": "2,500 CFUs"}, {"measurement": "APRY yeast level in broth", "setting": "APRY yeast [1]; 2.05 N salt, day 11", "result": "4,000 CFUs"}, {"measurement": "APRY yeast level in broth", "setting": "APRY yeast [1]; 2.05 N salt, day 13", "result": "1,600 CFUs"}, {"measurement": "APRY yeast level in broth", "setting": "APRY yeast [1]; 2.05 N salt, day 14", "result": "3,000 CFUs"}, {"measurement": "APRY yeast level in broth", "setting": "APRY yeast [1]; 2.05 N salt, day ½", "result": "9,600 CFUs"}]}, {"smiles": "[Cl-].[K+]", "note": "[KCl, potassium chloride]", "values": [{"measurement": "APRY yeast level in broth", "setting": "APRY yeast [1]; 0.51 N salt, day 0", "result": "3,800 CFUs"}, {"measurement": "APRY yeast level in broth", "setting": "APRY yeast [1]; 0.51 N salt, day 1", "result": "280,000 CFUs"}, {"measurement": "APRY yeast level in broth", "setting": "APRY yeast [1]; 0.51 N salt, day ½", "result": "14,200 CFUs"}, {"measurement": "APRY yeast level in broth", "setting": "APRY yeast [1]; 1.03 N salt, day 0", "result": "12,000 CFUs"}, {"measurement": "APRY yeast level in broth", "setting": "APRY yeast [1]; 1.03 N salt, day 1", "result": "78,000 CFUs"}, {"measurement": "APRY yeast level in broth", "setting": "APRY yeast [1]; 1.03 N salt, day 1½", "result": "772,000 CFUs"}, {"measurement": "APRY yeast level in broth", "setting": "APRY yeast [1]; 1.03 N salt, day ½", "result": "12,300 CFUs"}, {"measurement": "APRY yeast level in broth", "setting": "APRY yeast [1]; 1.54 N salt, day 0", "result": "13,800 CFUs"}, {"measurement": "APRY yeast level in broth", "setting": "APRY yeast [1]; 1.54 N salt, day 1", "result": "11,600 CFUs"}, {"measurement": "APRY yeast level in broth", "setting": "APRY yeast [1]; 1.54 N salt, day 1½", "result": "85,000 CFUs"}, {"measurement": "APRY yeast level in broth", "setting": "APRY yeast [1]; 1.54 N salt, day ½", "result": "7,900 CFUs"}, {"measurement": "APRY yeast level in broth", "setting": "APRY yeast [1]; 2.05 N salt, day 0", "result": "7,300 CFUs"}, {"measurement": "APRY yeast level in broth", "setting": "APRY yeast [1]; 2.05 N salt, day 1", "result": "3,300 CFUs"}, {"measurement": "APRY yeast level in broth", "setting": "APRY yeast [1]; 2.05 N salt, day 1½", "result": "8,000 CFUs"}, {"measurement": "APRY yeast level in broth", "setting": "APRY yeast [1]; 2.05 N salt, day 2", "result": "68,000 CFUs"}, {"measurement": "APRY yeast level in broth", "setting": "APRY yeast [1]; 2.05 N salt, day ½", "result": "7,900 CFUs"}, {"measurement": "growth of APRY yeast in the broth system", "setting": "APRY yeast [1]; YM broth, target pH 5.5", "result": "does not inhibit the growth of APRY yeast"}]}, {"smiles": "Cl.N", "note": "[NH4Cl, ammonium chloride]", "values": [{"measurement": "Observation: APRY outgrowth / stability", "setting": "APRY yeast [2]", "result": "faster APRY die-off"}, {"measurement": "APRY yeast level in broth", "setting": "APRY yeast [1]; 0.51 N salt, day 0", "result": "10,200 CFUs"}, {"measurement": "APRY yeast level in broth", "setting": "APRY yeast [1]; 0.51 N salt, day 1", "result": "260,000 CFUs"}, {"measurement": "APRY yeast level in broth", "setting": "APRY yeast [1]; 0.51 N salt, day 1½", "result": "672,000 CFUs"}, {"measurement": "APRY yeast level in broth", "setting": "APRY yeast [1]; 0.51 N salt, day ½", "result": "11,700 CFUs"}, {"measurement": "APRY yeast level in broth", "setting": "APRY yeast [1]; 1.03 N salt, day 0", "result": "8,100 CFUs"}, {"measurement": "APRY yeast level in broth", "setting": "APRY yeast [1]; 1.03 N salt, day 1", "result": "32,000 CFUs"}, {"measurement": "APRY yeast level in broth", "setting": "APRY yeast [1]; 1.03 N salt, day 1½", "result": "14,000 CFUs"}, {"measurement": "APRY yeast level in broth", "setting": "APRY yeast [1]; 1.03 N salt, day 2", "result": "53,000 CFUs"}, {"measurement": "APRY yeast level in broth", "setting": "APRY yeast [1]; 1.03 N salt, day ½", "result": "6,000 CFUs"}, {"measurement": "APRY yeast level in broth", "setting": "APRY yeast [1]; 1.54 N salt, day 0", "result": "10,900 CFUs"}, {"measurement": "APRY yeast level in broth", "setting": "APRY yeast [1]; 1.54 N salt, day 1", "result": "3,100 CFUs"}, {"measurement": "APRY yeast level in broth", "setting": "APRY yeast [1]; 1.54 N salt, day 1½", "result": "7,000 CFUs"}, {"measurement": "APRY yeast level in broth", "setting": "APRY yeast [1]; 1.54 N salt, day 2", "result": "39,500 CFUs"}, {"measurement": "APRY yeast level in broth", "setting": "APRY yeast [1]; 1.54 N salt, day 5", "result": "2,200 CFUs"}, {"measurement": "APRY yeast level in broth", "setting": "APRY yeast [1]; 1.54 N salt, day 6", "result": "3,000 CFUs"}, {"measurement": "APRY yeast level in broth", "setting": "APRY yeast [1]; 1.54 N salt, day 8", "result": "2,900 CFUs"}, {"measurement": "APRY yeast level in broth", "setting": "APRY yeast [1]; 1.54 N salt, day 11", "result": "4,600 CFUs"}, {"measurement": "APRY yeast level in broth", "setting": "APRY yeast [1]; 1.54 N salt, day 13", "result": "40,000 CFUs"}, {"measurement": "APRY yeast level in broth", "setting": "APRY yeast [1]; 1.54 N salt, day 14", "result": "84,000 CFUs"}, {"measurement": "APRY yeast level in broth", "setting": "APRY yeast [1]; 1.54 N salt, day ½", "result": "7,200 CFUs"}, {"measurement": "APRY yeast level in broth", "setting": "APRY yeast [1]; 2.05 N salt, day 0", "result": "8,900 CFUs"}, {"measurement": "APRY yeast level in broth", "setting": "APRY yeast [1]; 2.05 N salt, day 1", "result": "3,100 CFUs"}, {"measurement": "APRY yeast level in broth", "setting": "APRY yeast [1]; 2.05 N salt, day 1½", "result": "10,000 CFUs"}, {"measurement": "APRY yeast level in broth", "setting": "APRY yeast [1]; 2.05 N salt, day 2", "result": "36,100 CFUs"}, {"measurement": "APRY yeast level in broth", "setting": "APRY yeast [1]; 2.05 N salt, day 5", "result": 700, "unit": "CFUs"}, {"measurement": "APRY yeast level in broth", "setting": "APRY yeast [1]; 2.05 N salt, day 6", "result": 700, "unit": "CFUs"}, {"measurement": "APRY yeast level in broth", "setting": "APRY yeast [1]; 2.05 N salt, day 8", "result": "1,600 CFUs"}, {"measurement": "APRY yeast level in broth", "setting": "APRY yeast [1]; 2.05 N salt, day 11", "result": 400, "unit": "CFUs"}, {"measurement": "APRY yeast level in broth", "setting": "APRY yeast [1]; 2.05 N salt, day 13", "result": 600, "unit": "CFUs"}, {"measurement": "APRY yeast level in broth", "setting": "APRY yeast [1]; 2.05 N salt, day 14", "result": 800, "unit": "CFUs"}, {"measurement": "APRY yeast level in broth", "setting": "APRY yeast [1]; 2.05 N salt, day ½", "result": "5,800 CFUs"}]}]}
